The data set is described as follows: Measurement of LogP values by HPLC on reversed phase columns (EEC directive 79/831 Annex V.A8). Type of data set: physicochemical. A digest of the protocol: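 LogP measured by reversed-phase HPLC following EEC directive 79/831 Annex V.A8. Lambda-max taken from UV spectra at 200–400 nm at chromatographic peak maxima; diastereoisomer values listed separately.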

Marks after values point to notes of the source that are not given here.

In the case of `CC1CCC(C)(CNC(=O)c2snc(N)c2Cl)CC1` (stereo not drawn) [I-835], the LogP is 3.17[a].

Consider `CCC1(CNC(=O)c2snc(N)c2Cl)CCCCC1` [I-836], for which the LogP was 3.20[a].

Regarding `COC1(CNC(=O)c2snc(N)c2Cl)CCC(C)CC1` (stereo not drawn) [I-837], the LogP is 2.58[a].

`Nc1nsc(C(=O)NCC2CCC(C(F)(F)F)CC2)c1Br` (stereo not drawn) [I-840]: the LogP was 2.68[a].

As for `Nc1nsc(C(=O)NC2CCCCC2)c1Br` [I-841], the LogP is 2.11[a].

For the compound `CC1(C)CC(CNC(=O)c2snc(N)c2Br)C1` [I-842], the LogP was 2.60[a].

With `CCOC(=O)C1CCC(NC(=O)c2snc(N)c2Cl)CC1` (stereo not drawn) [I-843], the LogP was 1.92[a].

In the case of `CCOC(=O)C1CCC(NC(=O)c2snc(N)c2Cl)CC1` (stereo not drawn) [I-844], the LogP was 2.02[a].

With `CC(=O)N(C(C)=O)c1nsc(C(=O)NCc2ccc(C#N)cc2)c1Cl` [I-846], the LogP was 2.12[a].

As to `CC(=O)Nc1nsc(C(=O)NCc2ccc(C#N)cc2)c1Cl` [I-847], the LogP is 1.24[a].

On to `Nc1nsc(C(=O)NCCC2CCCCC2)c1Cl` [I-850], for which the LogP was 2.92[a].

For the compound `Nc1nsc(C(=O)NCCc2ccccc2)c1Cl` [I-851], the LogP is 1.98[a].

`Nc1nsc(C(=O)Nc2ccccc2)c1Cl` [I-852]: the LogP was 1.83[a].

With `Nc1cc(C(=O)NCCC2CCCCC2)sn1` [I-853], the LogP was 2.23[a].

On to `Nc1cc(C(=O)NCCc2ccccc2)sn1` [I-854], for which the LogP is 1.52[a].

Turning to `Nc1cc(C(=O)Nc2ccccc2)sn1` [I-855], the LogP is 1.41[a].

`COc1ccc(CNc2nsc(C(=O)Nc3ccc(F)cc3F)c2Cl)cc1` [I-856]: the LogP is 3.83[a].

For `Nc1nsc(C(=O)Nc2ccc(F)cc2)c1Cl` [I-857], the LogP is 2.04[a].

As to `COc1ccc(CNc2nsc(C(=O)Nc3ccc(F)cc3)c2Cl)cc1` [I-858], the LogP is 3.76[a].

Regarding `COc1ccc(CNc2nsc(C(=O)N(CC3C(C)CCCC3(C)C)C3CC3)c2Cl)cc1` (stereo not drawn) [I-859], the LogP was 6.09[a].

Take `COc1ccc(CNc2nsc(C(=O)N(C3CC3)C3CCCCC3(C)C)c2Cl)cc1` (stereo not drawn) [I-860]: the LogP is 5.31[a].

As to `COc1ccc(CNc2nsc(C(=O)Nc3cccc(F)c3)c2Cl)cc1` [I-861], the LogP is 3.85[a].

Consider `COc1ccc(CNc2nsc(C(=O)Nc3cc(F)cc(F)c3)c2Cl)cc1` [I-862], for which the LogP is 4.15[a].

With `CC1(C)CCCCC1N(C(=O)c1snc(N)c1Cl)C1CC1` (stereo not drawn) [I-863], the LogP is 3.30[a].

Turning to `Nc1nsc(C(=O)Nc2ccc(F)cc2F)c1Cl` [I-864], the LogP was 2.07[a].

As to `Nc1nsc(C(=O)Nc2cccc(F)c2)c1Cl` [I-865], the LogP was 2.07[a].

Take `Nc1nsc(C(=O)Nc2cc(F)cc(F)c2)c1Cl` [I-866]: the LogP was 2.54[a].

In the case of `COc1ccc(CNc2nsc(C(=O)Nc3ccc(Cl)cc3Cl)c2Cl)cc1` [I-867], the LogP is 5.22[a].

On to `COc1ccc(CNc2nsc(C(=O)Nc3ccc(Cl)cc3)c2Cl)cc1` [I-868], for which the LogP is 4.21[a].

As for `COc1ccc(CNc2nsc(C(=O)Nc3cccc4c3C(C)OC4(C)C)c2Cl)cc1` (stereo not drawn) [I-869], the LogP is 3.96[a].

In the case of `COc1ccc(CNc2nsc(C(=O)N(Cc3c(C)cc(C)cc3C)C3CC3)c2Cl)cc1` [I-870], the LogP is 4.94[a].

`COc1ccc(CNc2nsc(C(=O)N(Cc3ccccc3C(C)C)C3CC3)c2Cl)cc1` [I-871]: the LogP is 4.71[a].

In the case of `COc1ccc(CNc2nsc(C(=O)N(Cc3cc(C)cc(C)c3)C3CC3)c2Cl)cc1` [I-872], the LogP was 4.90[a].

For the compound `COc1ccc(CNc2nsc(C(=O)N(C3CC3)C(C)c3ccccc3)c2Cl)cc1` (stereo not drawn) [I-873], the LogP is 4.17[a].

`CCc1ccccc1C(C)N(C(=O)c1snc(NCc2ccc(OC)cc2)c1Cl)C1CC1` (stereo not drawn) [I-874]: the LogP is 5.14[a].

On to `CCC(c1ccccc1)N(C(=O)c1snc(NCc2ccc(OC)cc2)c1Cl)C1CC1` (stereo not drawn) [I-875], for which the LogP was 4.85[a].

With `COc1ccc(CNc2nsc(C(=O)N(Cc3cc(C)ccc3C)C3CC3)c2Cl)cc1` [I-876], the LogP was 4.77[a].

On to `COc1ccc(CNc2nsc(C(=O)NCCc3ccccc3Cl)c2Cl)cc1` [I-877], for which the LogP is 4.07[a].

Turning to `Nc1nsc(C(=O)Nc2ccc(Cl)cc2)c1Cl` [I-878], the LogP was 2.51[a].

With `CC1OC(C)(C)c2cccc(NC(=O)c3snc(N)c3Cl)c21` (stereo not drawn) [I-879], the LogP was 2.28[a].

As to `COc1ccc(CNc2nsc(C(=O)Nc3cccc4c3C(C)CC4(C)C)c2Cl)cc1` (stereo not drawn) [I-880], the LogP was 5.42[a].

For `COc1ccc(CNc2nsc(C(=O)Nc3ccccc3C#N)c2Cl)cc1` [I-881], the LogP is 3.62[a].

For `COc1ccc(CNc2nsc(C(=O)Nc3ccc(C)c(Cl)c3)c2Cl)cc1` [I-882], the LogP is 4.63[a].

Turning to `COc1ccc(CNc2nsc(C(=O)NS(C)(=O)=O)c2Cl)cc1` [I-883], the LogP was 1.86[a].

As to `CNC(=O)c1snc(N)c1Cl` [I-884], the LogP is 0.32[a].

With `CC1CC(C)(C)c2cccc(NC(=O)c3snc(N)c3Cl)c21` (stereo not drawn) [I-885], the LogP was 3.62[a].

As for `CC(c1ccccc1)N(C(=O)c1snc(N)c1Cl)C1CC1` (stereo not drawn) [I-886], the LogP was 2.73[a].

Turning to `CCc1ccccc1C(C)N(C(=O)c1snc(N)c1Cl)C1CC1` (stereo not drawn) [I-887], the LogP was 3.37[a].

Consider `CCC(c1ccccc1)N(C(=O)c1snc(N)c1Cl)C1CC1` (stereo not drawn) [I-888], for which the LogP is 3.11[a].

Take `COc1ccc(CNc2nsc(C(=O)N(Cc3cc(C)c(C)cc3C)C3CC3)c2Cl)cc1` [I-889]: the LogP was 5.11[a].

Consider `CCc1ccccc1CN(C(=O)c1snc(NCc2ccc(OC)cc2)c1Cl)C1CC1` [I-890], for which the LogP is 4.74[a].

With `COc1ccc(CNc2nsc(C(=O)N(Cc3c(C)cccc3C)C3CC3)c2Cl)cc1` [I-891], the LogP is 4.82[a].

With `COc1ccc(CNc2nsc(C(=O)N(Cc3ccc(C)cc3C)C3CC3)c2Cl)cc1` [I-892], the LogP is 4.80[a].

For the compound `COc1ccc(CNc2nsc(C(=O)N(C3CCCCC3)C3CC3)c2Cl)cc1` [I-893], the LogP is 4.67[a].

Consider `CCC(C)C(C)N(C(=O)c1snc(NCc2ccc(OC)cc2)c1Cl)C1CC1` (stereo not drawn) [I-894], for which the LogP is 4.85[a].

With `Nc1nsc(C(=O)NCCc2ccccc2Cl)c1Cl` [I-895], the LogP is 2.41[a].

As for `COc1ccc(CNc2nsc(C(=O)N(Cc3ccccc3)C3CC3)c2Cl)cc1` [I-897], the LogP was 4.14[a].

For `CCc1cccc(C)c1CN(C(=O)c1snc(NCc2ccc(OC)cc2)c1Cl)C1CC1` [I-898], the LogP is 5.17[a].

`CCCC(c1ccccc1)N(C(=O)c1snc(NCc2ccc(OC)cc2)c1Cl)C1CC1` (stereo not drawn) [I-899]: the LogP is 5.25[a].

Turning to `COc1ccc(CNc2nsc(C(=O)N(CC(C)C)C3CC3)c2Cl)cc1` [I-900], the LogP is 4.09[a].

As for `CCC(C)C(C)N(C(=O)c1snc(N)c1Cl)C1CC1` (stereo not drawn) [I-901], the LogP was 3.00[a].

Turning to `CC(C)CN(C(=O)c1snc(N)c1Cl)C1CC1` [I-902], the LogP is 2.25[a].

On to `O=C(Nc1ccc(Cl)cc1Cl)c1cc(N(Cc2ccccc2)Cc2ccccc2)ns1` [I-903], for which the LogP is 5.74[a].

Turning to `O=C(NCCc1ncc(C(F)(F)F)cc1Cl)c1cc(N(Cc2ccccc2)Cc2ccccc2)ns1` [I-904], the LogP was 5.03[a].

On to `N#Cc1ccccc1NC(=O)c1cc(N(Cc2ccccc2)Cc2ccccc2)ns1` [I-905], for which the LogP was 4.26[a].

Consider `Cc1ccc(NC(=O)c2cc(N(Cc3ccccc3)Cc3ccccc3)ns2)cc1Cl` [I-906], for which the LogP is 5.68[a].

Take `Cc1cc(C)c(CN(C(=O)c2cc(N(Cc3ccccc3)Cc3ccccc3)ns2)C2CC2)c(C)c1` [I-907]: the LogP was 6.25[a].

`CCCC(c1ccccc1)N(C(=O)c1snc(N)c1Cl)C1CC1` (stereo not drawn) [I-908]: the LogP is 3.48[a].

For the compound `Nc1cc(C(=O)N(Cc2c(F)cccc2Cl)C2CC2)sn1` [I-909], the LogP is 2.28[a].

As for `O=C(c1cc(N(Cc2ccccc2)Cc2ccccc2)ns1)N(Cc1ccccc1)C1CC1` [I-910], the LogP was 5.36[a].

Turning to `O=C(c1cc(N(Cc2ccccc2)Cc2ccccc2)ns1)N(Cc1c(F)cccc1Cl)C1CC1` [I-911], the LogP is 5.54[a].

Consider `CC(c1cc(Cl)cc(Cl)c1)N(C(=O)c1cc(N(Cc2ccccc2)Cc2ccccc2)ns1)C1CC1` (stereo not drawn) [I-912], for which the LogP was 6.54[a].

As to `Nc1nsc(C(=S)NCC2CCCCC2)c1Cl` [I-913], the LogP was 3.37[a].

In the case of `Cc1ccccc1NC(=O)c1snc(N)c1Cl` [I-914], the LogP was 2.08[a].

As to `Cc1cccc(NC(=O)c2snc(N)c2Cl)c1` [I-915], the LogP was 2.28[a].

As to `Cc1ccc(NC(=O)c2snc(N)c2Cl)cc1` [I-916], the LogP is 2.27[a].

`Nc1nsc(C(=O)N(c2ccc(F)cc2)C2CC2)c1Cl` [I-917]: the LogP was 2.21[a].

`COc1ccc(CNc2nsc(C(=O)N(c3cc(F)cc(F)c3)C3CC3)c2Cl)cc1` [I-918]: the LogP is 4.10[a].

Regarding `Nc1cc(C(=O)NCCc2ncc(C(F)(F)F)cc2Cl)sn1` [I-919], the LogP was 2.01[a].

`Cc1ccc(NC(=O)c2cc(N)ns2)cc1Cl` [I-920]: the LogP is 2.35[a].

For `COc1ccc(CNc2nsc(C(=O)N(c3ccc(F)cc3F)C3CC3)c2Cl)cc1` [I-921], the LogP is 4.02[a].

With `COc1ccc(CNc2nsc(C(=O)N(c3ccc(F)cc3)C3CC3)c2Cl)cc1` [I-922], the LogP is 3.85[a].

For the compound `Cc1ccc(NC(=O)c2snc(N)c2Cl)c(C)c1` [I-923], the LogP is 2.44[a].

For the compound `Cc1cccc(C)c1NC(=O)c1snc(N)c1Cl` [I-924], the LogP was 2.05[a].

Take `Cc1cccc(NC(=O)c2snc(N)c2Cl)c1C` [I-925]: the LogP was 2.27[a].

For the compound `Nc1nsc(C(=O)Nc2cccc3c2CCC3)c1Cl` [I-926], the LogP was 2.75[a].

For the compound `Nc1nsc(C(=O)Nc2cccc3ccccc23)c1Cl` [I-927], the LogP was 2.39[a].
